Measurements published in patent publication US7799775B2, “Pyrimidine derivatives” (ASKA Pharmaceutical Co., Ltd., priority 2004, dated 2010).
Where a name gives a salt, the structure may show the parent alone.

How the values were obtained:
[1] = biological target: T1, human 5-HT1A receptor (Homo sapiens, UniProt P08908); assay: Affinity measurement of the compounds to human 5-HT1A receptor (in vitro), [3H]8-OH-DPAT binding; details: test compound 100 nmols/L, [3H]8-OH-DPAT 0.25 nmols/L, CHO cell membrane expressing human 5-HT1A receptor; for inhibition at 0.1 µM: read-out: Percent Inhibition (%) on Each Receptor's Binding at 10^−7M, 5-HT1A
T1 construct: purchased Packard Bioscience; host or cells: CHO cells (membrane preparation)
T1 sequence (P08908 1-422): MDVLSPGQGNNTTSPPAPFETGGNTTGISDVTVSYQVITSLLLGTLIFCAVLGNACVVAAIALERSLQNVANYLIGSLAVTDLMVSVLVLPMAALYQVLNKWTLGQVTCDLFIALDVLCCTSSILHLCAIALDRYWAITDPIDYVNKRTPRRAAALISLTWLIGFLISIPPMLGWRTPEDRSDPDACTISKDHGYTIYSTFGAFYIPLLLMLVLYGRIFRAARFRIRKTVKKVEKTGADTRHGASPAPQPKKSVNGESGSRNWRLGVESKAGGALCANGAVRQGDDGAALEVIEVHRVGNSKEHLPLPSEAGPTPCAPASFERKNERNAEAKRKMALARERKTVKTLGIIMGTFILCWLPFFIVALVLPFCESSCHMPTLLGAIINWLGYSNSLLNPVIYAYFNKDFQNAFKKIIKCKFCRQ
Description: (1) Affinity Measurement of the Compounds to Human 5-HT1A Receptor (in Vitro)
CHO cell membrane sample in which human 5-HT1A receptor was expressed (purchased from Packard Bioscience) 0.25 mL (about 50 units) was added to 24.75 mL of incubation buffer solution A (an aqueous solution of a mixture of 50 mmols/L of Tris-hydrochloric acid, 10 mmols/L of magnesium sulfate, 0.5 mmols/L of EDTA and 0.1% ascorbic acid, whose pH was adjusted to 7.4 at 27° C. with 1N-aqueous sodium hydroxide solution), and labeled as membrane sample suspension A. Separately, each test compound was made into 270 μmols/L DMSO solution and diluted to a prescribed concentration with the incubation buffer solution A, to provide a compound solution.
A piece of polypropylene tube was charged with 20 μL of [^3H]8-OH-DPAT (8-hydroxy-2-(di-n-propylamino)tetralin; purchased from Daiichi Pure Chemicals Co., Ltd.) (The concentration of the [^3H]8-OH-DPAT had been advancedly adjusted to render its concentration in the reaction mixture to 0.25 nmols/L) and 20 μL of one of the compound solutions. Further 500 μL of the membrane sample suspension A was added into the tube, followed by 60 minutes' incubation at 27° C. The reaction was terminated by rapid filtration of the reaction mixture through GF/C filter which had been advancedly immersed in a solution formed by adding to the incubation buffer solution A polyethyleneimine to a concentration of 0.3%, using Brandel cell harvester. Then the filter was washed with about 5 mL of 50 mmols/L of Tris-hydrochloric acid which had been cooled to 4° C. The filter was once again washed after similar operation.
(§1) Residual radioactivity on the filter was measured with liquid scintillation counter (Aloka Co., LSC-5100). Percent inhibition (%) of each test compound to binding of [^3H]8-OH-DPAT to 5-HT1A receptor at a concentration of 0.25 nmols/L, i.e., affinity of each test compound to 5-HT1A receptor, can be calculated according to the following expression. The ratio of non-specific binding was calculated by measuring the radioactivity in case of using 8-OH-DPAT at a concentration of 10 μmols/L, with which value the measured value of each test compound was compensated.
(§2) Affinity of each test compound to 5-HT1A receptor and 5-HT3 receptor at a concentration of 100 nmols/L were as shown in the following Tables A-1 and A-2. BRL-43694 and tropisetron (ICS 205-930), which were used in measuring affinity of those compounds to 5-HT3 receptor, have the following structures: […]

[2] = biological target: T2, human 5-HT3 receptor (Homo sapiens, UniProt P46098); assay: Measurement of affinity to human 5-HT3 receptor (in vitro), [3H]BRL-43694 binding; details: test compound 100 nmols/L, [3H]BRL-43694 0.5 nmols/L, HEK-293 cell membrane expressing human 5-HT3 receptor; for inhibition at 0.1 µM: read-out: Percent Inhibition (%) on Each Receptor's Binding at 10^−7M, 5-HT3
T2 construct: purchased BIOLINKS K.K; host or cells: HEK-293 cells (membrane preparation)
T2 sequence (P46098 24-478): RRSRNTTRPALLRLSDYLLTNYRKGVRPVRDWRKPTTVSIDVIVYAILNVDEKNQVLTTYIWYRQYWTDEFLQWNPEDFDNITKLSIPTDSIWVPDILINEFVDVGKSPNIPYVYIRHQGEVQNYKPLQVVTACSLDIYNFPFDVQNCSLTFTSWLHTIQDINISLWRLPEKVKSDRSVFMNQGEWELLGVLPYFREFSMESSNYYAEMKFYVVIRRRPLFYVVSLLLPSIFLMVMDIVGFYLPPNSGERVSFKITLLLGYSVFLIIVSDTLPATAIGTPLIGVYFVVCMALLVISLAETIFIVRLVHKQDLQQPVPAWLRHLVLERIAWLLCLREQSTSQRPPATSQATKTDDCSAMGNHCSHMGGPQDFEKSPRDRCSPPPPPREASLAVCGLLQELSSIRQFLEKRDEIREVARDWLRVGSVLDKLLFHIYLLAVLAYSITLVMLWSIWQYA
Description: (2) Measurement of Affinity of Each Test Compound to Human 5-HT3 Receptor (in Vitro):
HEK-293 cell membrane sample in which human 5-HT3 receptor was expressed (purchased from BIOLINKS K.K.) 0.05 mL (about 50 microassay) was added to 24.95 mL of incubation buffer solution B (an aqueous solution of a mixture of 50 mmols/L of Tris-hydrochloric acid, 5 mmols/L of magnesium chloride and 1 mmol/L of EDTA, whose pH was adjusted to 7.5 at 25° C. with 1N-aqueous sodium hydroxide solution) and homogenized, to provide a membrane sample suspension B. Separately, each test compound was made into 270 μmols/L of DMSO solution and diluted to a prescribed concentration with the incubation buffer solution B to provide a compound solution.
A piece of polypropylene tube was charged with 20 μL of [^3H]BRL-43694 (purchased from Daiichi Pure Chemicals Co., Ltd.) (The concentration of [^3H]BRL-43694 had been advancedly adjusted to render its concentration in the reaction mixture to 0.5 nmols/L.) and 20 μL of one of the compound solutions. Further 500 μL of the membrane sample suspension B was added into the tube, followed by 60 minutes' incubation at 25° C. The reaction was terminated by rapid filtration of the reaction mixture through GF/B filter which had been advancedly immersed in a solution formed by adding to the incubation buffer solution B polyethyleneimine to a concentration of 0.5%, using Brandel cell harvester. Then the filter was washed with about 5 mL of 50 mmols/L of Tris-hydrochloric acid which had been cooled to 4° C. The filter was once again washed after similar operation.
as §1, with “(ALOKA CO., LTD.” for “(Aloka Co.,”, “[^3H]BRL-43694” for “[^3H]8-OH-DPAT”, “5-HT3” for “5-HT1A”, “0.5” for “0.25”, “tropisetron: (ICS 205-930)” for “8-OH-DPAT”
as §2

inhibition at 0.1 µM [1] [%] | inhibition at 0.1 µM [2] [%] | Percent Inhibition (%) on Each Receptor's Binding at 10^−7M, 5-HT1A [1] [%] | Percent Inhibition (%) on Each Receptor's Binding at 10^−7M, 5-HT3 [2] [%] | Compound
98 | 96.9 |  |  | Cc1sc2nc(CCCCN3CCN(c4ccc5ccccc5n4)CC3)n(N)c(=O)c2c1C [Example 4-35, 3-amino-5,6-dimethyl-2-[4-(4-quinolin-2-ylpiperazin-1-yl)butyl]-3H-thieno[2,3-d]pyrimidin-4-one]
 |  | 94.0 | 94.2 | Cc1cc(N2CCN(CCCSc3nc4sc5c(c4c(=O)n3N)CCCC5)CC2)nc2ccccc12 [Example 1-33]
85 | 61.2 |  |  | O=c1c2c(nc(CCCCN3CCN(c4ccc5ccccc5n4)CC3)n1Cc1ccccc1)CCCC2 [Example 7-4, 3-benzyl-2-[4-(4-quinolin-2-ylpiperazin-1-yl)butyl]-5,6,7,8-tetrahydro-3H-quinazolin-4-one]
100 | 50 |  |  | NN1Oc2c(sc3c2CCNC3)N=C1SCCCN1CCN(c2ccc3ccccc3n2)CC1 [Example 1-59, 3-amino-2-[3-(4-quinolin-2-ylpiperazin-1-yl)propylthio]-3,4,5,6,7,8-hexahydro-4-oxa-9-thia-1,3,7-triaza-9H-fluorene trihydrochloride]
74.7 | 87.3 |  |  | Cn1c(SCCCN2CCN(c3ccc4ccccc4n3)CC2)nc2ccccc2c1=O [Example 7-28]
72.2 | 66.8 |  |  | O=c1c2ccccc2nc(CCCCN2CCN(c3ccc4ccccc4n3)CC2)n1Cc1ccccc1 [Example 7-16, 3-benzyl-2-[4-(4-quinolin-2-ylpiperazin-1-yl)butyl]-3H-quinazolin-4-one]
82.4 | 5.3 |  |  | COc1cc2nc(CCCCN3CCN(c4ccc5ccccc5n4)CC3)n(C)c(=O)c2cc1OC [Example 7-22, 6,7-dimethoxy-3-methyl-2-[4-(4-quinolin-2-ylpiperazin-1-yl)butyl]-3H-quinazolin-4-one]
91 | 32 |  |  | Cn1c(CCCCN2CCN(c3nc4ccccc4s3)CC2)nc2c(c1=O)CCCC2 [Example 7-9, 2-[4-(4-benzothiazol-2-ylpiperazin-1-yl)butyl]-3-methyl-5,6,7,8-tetrahydro-3H-quinazolin-4-one]
70.6 | 25.6 |  |  | c1ccc(CO[C@@H]2C[C@H]3CN(c4nccc5ccsc45)CCN3C2)cc1 [Production Example 116, 7-((7R,8aS)-7-benzyloxyoctahydropyrrolo[1,2-a]pyrazin-2-yl)thieno-[2,3-c]pyridine]
57.7 | 10.6 |  |  | c1ccc(CO[C@@H]2C[C@H]3CN(c4nccc5sccc45)CCN3C2)cc1 [Production Example 117, 4-((7R,8aS)-7-benzyloxyoctahydropyrrolo[1,2-a]pyrazin-2-yl)thieno-[3,2-c]pyridine]
54.5 | 85.5 |  |  | O=c1[nH]c(NCCCN2CCN(c3nc4ccccc4n4cccc34)CC2)nc2ccccc12 [Example 5-8, 2-[3-(4-pyrrolo[1,2-a]quinoxalin-4-ylpiperazin-1-yl)propylamino]-3H-quinazolin-4-one]
16.1 | 7.1 |  |  | CCn1c(CCCCN2CCN(c3nc4ccccc4s3)CC2)nc2c(c1=O)CCCC2 [Example 7-10, 2-[4-(4-benzothiazol-2-ylpiperazin-1-yl)butyl]-3-ethyl-5,6,7,8-tetrahydro-3H-quinazolin-4-one]
80.8 | 93.6 |  |  | Cn1c(NCCCN2CCN(c3ccc4ccccc4n3)CC2)nc2c(c1=O)CCCC2 [Example 7-29, 3-methyl-2-[3-(4-quinolin-2-ylpiperazin-1-yl)propylamino]-5,6,7,8-tetrahydro-3H-quinazolin-4-one]

Compound | inhibition at 0.1 µM [1] [%] | inhibition at 0.1 µM [2] [%] | Percent Inhibition (%) on Each Receptor's Binding at 10^−7M, 5-HT1A [1] [%] | Percent Inhibition (%) on Each Receptor's Binding at 10^−7M, 5-HT3 [2] [%]
Cc1cc2c(N3CCN4CCC[C@@H]4C3)nccc2o1 [Production Example 115, 4-((8aR)-octahydropyrrolo[1,2-a]pyrazin-2-yl)-2-methylfuro[3,2-c]pyridine] | 82 | 74.3 |  | 
Brc1ccc2ccnc(N3CCNCC3)c2c1 [Production Example 30, 7-bromo-1-piperazin-1-ylisoquinoline] | 92.8 | 93.4 |  | 
c1cc2occc2c(N2CCN3CCC[C@@H]3C2)n1 [Production Example 113, 4-((8aR)-octahydropyrrolo[1,2-a]pyrazin-2-yl)furo[3,2-c]pyridine] | 56.4 | 82.4 |  | 
O[C@@H]1C[C@H]2CN(c3nccc4occc34)CCN2C1 [Production Example 114, 4-((7R,8aS)-7-hydroxyoctahydropyrrolo[1,2-a]pyrazin-2-yl)furo[3,2-c]-pyridine] | 16.7 | 91 |  | 
c1cc2sccc2c(N2CCN3CCCCC3C2)n1 (centres unmarked) [Production Example 121, 4-octahydropyrido[1,2-a]pyrazin-2-ylthieno[3,2-c]pyridine] | 69.3 | 85.6 |  | 
COc1ccc2ccnc(N3CCN(C)CC3)c2c1 [Production Example 32, 7-methoxy-1-(4-methylpiperazin-1-yl)isoquinoline] | 91.7 | 94.4 |  | 
